Marks after values point to notes of the source that are not given here.
Key:
[1] = tested on: retinal ganglion cell axons; assay: Protection of retinal ganglion cell axons from degeneration following optic nerve transection (Table V); type: in vivo, rat; conditions: ± SEM
Description: Efficacy of representative compounds from different immunophilin ligand series in protecting retinal ganglion cell axons from degeneration following optic nerve transection is set forth in Table V.

[2] = Clearance (Table V comments); type: in vitro ADME
FKBP12 = FKBP12 (Homo sapiens, UniProt P62942); assay: Ki Test Procedure: inhibition of peptidyl-prolyl isomerase (rotamase) activity, chymotrypsin-coupled assay; type: biochemical; conditions: apparent Ki; read-out: Ki rotomase
Sequence of FKBP12 (P62942 whole entry, species assumed): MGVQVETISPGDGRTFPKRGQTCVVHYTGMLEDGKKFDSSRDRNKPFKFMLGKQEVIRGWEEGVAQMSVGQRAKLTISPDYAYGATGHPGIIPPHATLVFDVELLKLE
Description: The inhibition of the prolyl peptidyl cis-trans isomerase activity of FKBP may be measured as an indicator of this affinity.
These values are obtained as apparent Ki's.
The cis-trans isomerization of an alanine-proline bond in a model substrate, N-succinyl-Ala-Ala-Pro-Phe-p-nitroanilide, is monitored spectrophotometrically in a chymotrypsin-coupled assay, which releases para-nitroanilide from the trans form of the substrate. The inhibition of this reaction caused by the addition of different concentrations of inhibitor is determined, and the data is analyzed as a change in first-order rate constant as a function of inhibitor concentration to yield the apparent Ki values.
In a plastic cuvette are added 950 ml of ice cold assay buffer (25 mM HEPES, pH 7.8, 100 mM NaCl), 10 ml of FKBP (2.5 mM in 10 mM Tris-Cl pH 7.5, 100 mM NaCl, 1 mM dithiothreitol), 25 ml of chymotrypsin (50 mg/ml in 1 mM HCl) and 10 ml of test compound at various concentrations in dimethyl sulfoxide. The reaction is initiated by the addition of 5 ml of substrate (succinyl-Ala-Phe-Pro-Phe-para-nitroanilide, 5 mg/ml in 2.35 mM LiCl in trifluoroethanol).
The absorbance at 390 nm versus time is monitored for 90 seconds using a spectrophotometer and the rate constants are determined from the absorbance versus time data files.

[3] = tested on: retinal ganglion cells and optic nerve axons; assay: In vivo retinal ganglion cell and optic nerve axon tests after optic nerve transection; set-up: species or system Sprague Dawley rats; conditions: 90 days after transection
Description: A second groups received the same neuroimmunogphilin FKBP ligand dose for 28 days.
All eyes and optic nerves stumps were removed.

retinal ganglion cells = assay: Retinal ischemia by raised intraocular pressure; type: in vivo, rat
Description: Retinal ganglion cells were retrogradely labeled in adult rate by bilateral injection of fluorogold in their lateral geniculate nuclei. Labeled ganglion cells in the normal rat retina appear as white profiles against the dark background (FIG. 1A). Complete retinal ischemia was produced by infusing normal saline solution into the retinal vitreous cavity of each eye until the intraocular pressure exceeded arterial blood pressure. 28 days after the ischemic episode extensive degeneration of retinal ganglion cell was evidenced by massive reduction in the density of fluorogold labeled cells (FIG. 1B).
Optic nerves from vehicle treated cases examined 28 days after a 1 hour retinal ischemic episode are characterized by a decreased density of optic nerve axons and the appearance of numerous degenerating myelin figures (bright white filled circles).

retina = assay: Streptozotocin induced diabetes, retinal neovascularization and neuron loss; type: in vivo
[4] = tested on: streptozotocin-induced diabetic rat; assay: Streptozotocin-induced diabetic sensory neuropathy, hot plate and tail flick; type: in vivo, Male Wistar rats; conditions: lesioned animals treated for 6 weeks at 10 mg/kg s.c.
Method: The procedure involved using Male Wistar rats which were given a single injection of streptozotocin (65 mg/kg i.v.). Blood glucose levels were determined weekly for the first three weeks and on the last week of the experiment. Animals were evaluated weekly for signs of sensory neuropathy using the conventional hot plate and tail flick apparatus test procedures.

aged rodents = assay: Morris watermaze spatial learning and memory in aged rodents; type: in vivo, C57BL/6N-Nia mice; conditions: daily 10 mg/kg
Description: The Morris watermaze is widely used for assessing spatial memory formation and retention in experimental animals. The test depends on the animal's ability to utilize spatial visual information in order to locate a submerged escape platform in a water tank. It is important that the tank itself be as devoid of specific visual features as possible—thus, it is always circular in shape, the sides are kept smooth and in uniform dull colors, and the water is rendered opaque with nontoxic watercolor pigment or powdered milk. This is to ensure that the animal navigates only by the use of more distant visual cues, or by the use of intra-maze cues specifically provided by the experimenter.
The animals' path, speed, and swim time are tracked with a ceiling camera for later computerized analysis. Over the course of several successive trials, spatial learning can therefore be defined as a drop of distance swum, or time elapsed, from placement in the tank until escape onto the invisible platform. […]
Retention testing began after 3 weeks of dosing using the same methods as the acquisition phase. Swim Distances (cm) were analyzed in a 7×5 ANOVA including Groups and Blocks (1-5) as factors in the analysis, treating Blocks as a repeated measure.

[5] = tested on: retinal ganglion cells and optic nerve axons; assay: In vivo retinal ganglion cell and optic nerve axon tests after optic nerve transection; set-up: species or system Sprague Dawley rats; conditions: for ON axon Count: axonal density multiplied by ON area; for Distal optic nerve myelin basic protein Density: shrinkage: cross sectional area vs sham
[6] = 28 day treatment beginning 8 weeks after onset of streptozotocin induced diabetes
[7] = GPI 1046 first 14 days, 90 days after transection
[8] = ONT, GPI 1046 14 days, 90 days after transection
[9] = ONT, GPI 1046 28 days, 90 days after transection

CCC(C)(C)C(=O)C(=O)N1CCS[C@H]1C(=O)OCCCc1cccnc1 [F]
RT97+ RGC axon density 11 days after ON transection (36 ON axon rescued) [1]: 55.1% ± 5.9% SEM

O=C(SCCCc1ccccc1)[C@@H]1CCCN1S(=O)(=O)Cc1ccccc1 [C]
Clearance [2]: 31.1 µL/min | RT97+ RGC axon density 11 days after ON transection (36 ON axon rescued) [1]: 60.4% ± 3.1% SEM

GPI 1046
Ki (FKBP12): 7.5 nM | Clearance [2]: 63.8 µL/min | RT97+ RGC axon density 11 days after ON transection (36 ON axon rescued) [1]: 60.5% ± 3.9 SEM | preservation of axons of protected neurons in the proximal stump ([3]; Example 14, 10 mg/kg/day s.c. 28 days, RT97 immunohistochemistry): preserved the axons of virtually all protected neurons | fascicular pattern of myelin labeling in the distal stump ([3]; GPI 1046 first 28 days): dramatic protection of the fascicular pattern of myelin labeling | pattern of myelin degeneration in the proximal stump (myelin basic protein immunohistochemistry) ([3]; GPI 1046 first 28 days): dramatic preservation of the fascicular staining pattern | % surviving RGCs with ON axons ([3]; ONT, GPI 1046 28 days): 81.4% | ON head area (% sham) ([3]; ONT, GPI 1046 28 days): 95%* | Spared RGC population ([3]; ONT, GPI 1046 28 days): 28,096* | increased ON axon density ([3]; ONT, GPI 1046 28 days, adjusted for optic nerve diameter): 5.0X | Distal optic nerve myelin basic protein Density: myelin preservation ([3]; ONT, GPI 1046 28 days, cross sectional area multiplied by myelin density): 99% myelin % myelin preservation | Proximal optic nerve myelin basic protein Density ([3]; ONT, GPI 1046 28 days, ± SEM): 70 ± 6.3 SEM % recovery | protection of fluorogold labeled retinal ganglion cells (retinal ganglion cells; 10 mg/kg s.c. 1 hour prior and 10 mg/kg/day for next four days, 28 days after ischemic episode): noticeable protection of a large proportion of the vulnerable ganglion cell population | density of degenerating myelin figures in optic nerve (retinal ganglion cells; 28 days after 1 hour retinal ischemic episode): dramatically decreased the density of degenerating myelin figures | protection of optic nerve axons from ischemic degeneration (retinal ganglion cells; 28 days after 1 hour retinal ischemic episode, toluidine blue staining): protected the majority of optic nerve axons from degeneration | loss of neurons in the INL and GCL (retina; 28 day treatment beginning 8 weeks after onset of diabetes, vs streptozotocin/vehicle controls): appeared to decrease the loss of neurons in both the INL and GCL | neovascularization in the PR, ONL, OPL and INL (retina; [6]): reduced neovascularization | neuronal loss in the ONL (retina; [6]): did not appear to protect against neuronal loss in the ONL | hot plate and tail flick latency [4]: improvement in latency | spatial memory performance (swim distance, retention testing) (aged rodents; aged impaired mice, retention testing after 3 weeks of dosing): significantly enhanced spatial memory performance | difference between young and aged impaired GPI-1046 treated groups, retention phase (aged rodents; F1.69=3.09, P=0.08): no longer any statistically significant difference | ganglion cells population spared (perikaryal neuroprotection) ([5]; Example 14, 10 mg/kg/day s.c. 28 days, sacrificed 90 days after transection): 25% | density of myelin in the distal stump [5, 7]: slightly increase the density of myelin | pattern of myelin degeneration in the proximal stump (myelin basic protein immunohistochemistry) [5, 7]: did not alter the pattern of myelin degeneration | shrinkage of the distal stump [5, 7]: did not protect against shrinkage | cross sectional shrinkage of the distal stump ([5]; GPI 1046 first 28 days, 90 days after transection): prevented cross sectional shrinkage | % RGCs Rescued [5, 8]: 5.3% | % surviving RGCs with ON axons [5, 8]: 33.6% | ON head area (% sham) [5, 8]: 76% | Spared RGC population [5, 8]: 20,275 | increased ON axon density ([5]; ONT, GPI 1046 14 days, 90 days after transection, adjusted for optic nerve diameter): 1.5X | ON axon Count [5, 8]: 6820 | Distal optic nerve myelin basic protein Density: myelin loss ([5]; ONT, GPI 1046 14 days, 90 days after transection, cross sectional area multiplied by myelin density): 47% loss | Distal optic nerve myelin basic protein Density: shrinkage [5, 8]: 33% shrinkage | ON Axon density ([5]; ONT, GPI 1046 14 days, 90 days after transection, mean ± SEM RT97 labeled axons in 200 μm × 200 μm region): 569 ± 23 | Proximal optic nerve myelin basic protein Density ([5]; ONT, GPI 1046 14 days, 90 days after transection, ± SEM): 1.6 ± 3.0 SEM % recovery | RGC Counts ([5]; ONT, GPI 1046 28 days 10 mg/kg/day sc, 90 days after transection, mean density ± SEM of Fluoro-gold labeled RGC in 400 μm × 400 μm gridfields): 67.9 ± 5.8 | ON axon Count [5, 9]: 22,861* | Distal optic nerve myelin basic protein Density: shrinkage [5, 9]: 56% less % less shrinkage | protection of optic nerve axons ([5]; proximal stump, GPI 1046 first 14 days after transection, 90 days): 5.3%

O=C(OCCCCc1ccccc1)[C@@H]1CCCCN1S(=O)(=O)Cc1ccccc1 [D]
RT97+ RGC axon density 11 days after ON transection (36 ON axon rescued) [1]: 58.4% ± 6.4% SEM

CCC(C)(C)C(=O)C(=O)N1CCC[C@H]1C(=O)SCCC(c1ccccc1)c1ccccc1 [M]
Clearance [2]: 12.5 µL/min | RT97+ RGC axon density 11 days after ON transection (36 ON axon rescued) [1]: −6.3% ± 3.9% SEM

CCC(C)(C)C(=O)C(=O)N1CCCC[C@H]1C(=O)SCCC(c1ccccc1)c1ccccc1 [K]
Clearance [2]: 4.5 µL/min

CCC(C)(C)C(=O)C(=O)N1CCC[C@H]1C(=O)O [L]
Clearance [2]: 5.2 µL/min | RT97+ RGC axon density 11 days after ON transection (36 ON axon rescued) [1]: 7.8% ± 3.0% SEM

CCC(C)(C)C(=O)C(=O)N1CCC[C@H]1C(=O)CCCCc1cccnc1 [J]
Clearance [2]: 1.5 µL/min

O=C(SCCCc1ccccc1)[C@@H]1CCCN1C(=O)NC12CC3CC(CC(C3)C1)C2 [B]
Clearance [2]: 7 µL/min | RT97+ RGC axon density 11 days after ON transection (36 ON axon rescued) [1]: 100.0% ± 5.2% SEM

CN(C)C(=O)N1CCC[C@H]1C(=O)SCCCc1ccccc1 [N]
Clearance [2]: 21.9 µL/min

CCC(C)(C)C(=O)C(=O)N1CCCCC1C(=O)OC(CCc1ccccc1)CCc1ccccc1 (stereo not shown) [E]
Clearance [2]: 41.8 µL/min | RT97+ RGC axon density 11 days after ON transection (36 ON axon rescued) [1]: 56.6% ± 9.4% SEM
